{
  "source": "paper doi:10.1101/2021.04.08.439011v1",
  "about": "(biorxiv, 2021)",
  "key": {"[1]": {"target": "RSK4(Kin.Dom.2-C-terminal) (Homo sapiens, UniProt Q9UK32)", "details": "0.1 µM; binder"}, "[2]": {"target": "RPS6KA5(Kin.Dom.1-N-terminal) (Homo sapiens, UniProt O75582)", "details": "0.1 µM; binder"}, "[3]": {"target": "T1, PFCDPK1 (P. falciparum) (Plasmodium falciparum, UniProt P62344)", "T1 sequence (P62344 whole entry)": "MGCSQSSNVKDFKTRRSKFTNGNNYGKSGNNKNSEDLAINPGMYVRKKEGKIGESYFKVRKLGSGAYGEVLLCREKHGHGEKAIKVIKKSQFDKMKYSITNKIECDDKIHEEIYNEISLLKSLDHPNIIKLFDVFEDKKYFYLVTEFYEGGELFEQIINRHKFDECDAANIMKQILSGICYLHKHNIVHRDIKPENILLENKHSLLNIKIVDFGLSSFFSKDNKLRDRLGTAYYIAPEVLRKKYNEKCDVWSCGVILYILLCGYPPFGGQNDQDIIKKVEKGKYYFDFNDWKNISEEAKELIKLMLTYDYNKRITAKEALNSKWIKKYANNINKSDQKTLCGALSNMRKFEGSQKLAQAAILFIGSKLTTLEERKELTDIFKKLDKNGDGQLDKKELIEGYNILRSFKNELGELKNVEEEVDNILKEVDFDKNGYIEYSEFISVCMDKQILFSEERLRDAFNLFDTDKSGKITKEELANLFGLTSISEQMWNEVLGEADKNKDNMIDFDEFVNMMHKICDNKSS", "details": "0.1 µM; binder"}, "[4]": {"target": "TYK2(JH2domain-pseudokinase) (Homo sapiens, UniProt P29597)", "sequence (P29597 whole entry)": "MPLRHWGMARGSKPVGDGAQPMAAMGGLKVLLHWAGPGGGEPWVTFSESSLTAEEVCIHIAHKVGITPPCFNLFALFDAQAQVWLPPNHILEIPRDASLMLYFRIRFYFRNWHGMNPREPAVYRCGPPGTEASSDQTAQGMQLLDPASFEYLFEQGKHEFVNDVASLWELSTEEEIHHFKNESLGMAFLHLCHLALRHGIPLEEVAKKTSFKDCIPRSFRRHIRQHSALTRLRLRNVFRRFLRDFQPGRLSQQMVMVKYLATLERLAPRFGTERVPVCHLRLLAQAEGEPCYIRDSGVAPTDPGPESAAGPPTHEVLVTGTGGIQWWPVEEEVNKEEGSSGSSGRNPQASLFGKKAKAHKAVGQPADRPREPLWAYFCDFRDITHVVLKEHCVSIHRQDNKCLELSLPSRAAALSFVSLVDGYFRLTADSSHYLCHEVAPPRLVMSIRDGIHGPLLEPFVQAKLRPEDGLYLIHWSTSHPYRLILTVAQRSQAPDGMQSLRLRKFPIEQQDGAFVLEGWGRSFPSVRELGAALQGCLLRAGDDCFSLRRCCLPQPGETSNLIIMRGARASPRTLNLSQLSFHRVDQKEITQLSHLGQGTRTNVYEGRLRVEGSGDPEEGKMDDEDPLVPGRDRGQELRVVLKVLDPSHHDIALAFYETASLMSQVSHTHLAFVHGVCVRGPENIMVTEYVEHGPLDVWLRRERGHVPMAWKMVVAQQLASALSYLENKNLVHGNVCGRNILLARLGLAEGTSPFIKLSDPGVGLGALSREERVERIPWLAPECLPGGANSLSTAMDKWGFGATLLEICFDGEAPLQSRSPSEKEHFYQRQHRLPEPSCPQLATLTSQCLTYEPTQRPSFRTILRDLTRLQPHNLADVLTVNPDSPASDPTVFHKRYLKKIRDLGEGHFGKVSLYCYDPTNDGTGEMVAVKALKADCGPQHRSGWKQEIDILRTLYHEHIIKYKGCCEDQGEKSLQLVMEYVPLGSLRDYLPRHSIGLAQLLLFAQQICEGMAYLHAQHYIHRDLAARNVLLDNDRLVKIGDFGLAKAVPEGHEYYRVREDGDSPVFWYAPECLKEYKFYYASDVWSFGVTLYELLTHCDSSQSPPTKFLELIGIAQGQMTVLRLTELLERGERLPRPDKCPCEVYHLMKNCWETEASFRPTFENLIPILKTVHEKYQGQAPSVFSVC", "details": "0.1 µM; binder"}, "[5]": {"target": "KIT(D816H) (Homo sapiens, UniProt P10721, D816H)", "details": "0.1 µM; binder"}, "[6]": {"target": "S6K1 (Homo sapiens, UniProt P23443)", "details": "0.1 µM; binder"}, "[7]": {"target": "LRRK2(G2019S) (Homo sapiens, UniProt Q5S007, G2019S)", "details": "0.1 µM; binder"}, "[8]": {"target": "EPHB2 (Homo sapiens, UniProt P29323)", "sequence (P29323 whole entry)": "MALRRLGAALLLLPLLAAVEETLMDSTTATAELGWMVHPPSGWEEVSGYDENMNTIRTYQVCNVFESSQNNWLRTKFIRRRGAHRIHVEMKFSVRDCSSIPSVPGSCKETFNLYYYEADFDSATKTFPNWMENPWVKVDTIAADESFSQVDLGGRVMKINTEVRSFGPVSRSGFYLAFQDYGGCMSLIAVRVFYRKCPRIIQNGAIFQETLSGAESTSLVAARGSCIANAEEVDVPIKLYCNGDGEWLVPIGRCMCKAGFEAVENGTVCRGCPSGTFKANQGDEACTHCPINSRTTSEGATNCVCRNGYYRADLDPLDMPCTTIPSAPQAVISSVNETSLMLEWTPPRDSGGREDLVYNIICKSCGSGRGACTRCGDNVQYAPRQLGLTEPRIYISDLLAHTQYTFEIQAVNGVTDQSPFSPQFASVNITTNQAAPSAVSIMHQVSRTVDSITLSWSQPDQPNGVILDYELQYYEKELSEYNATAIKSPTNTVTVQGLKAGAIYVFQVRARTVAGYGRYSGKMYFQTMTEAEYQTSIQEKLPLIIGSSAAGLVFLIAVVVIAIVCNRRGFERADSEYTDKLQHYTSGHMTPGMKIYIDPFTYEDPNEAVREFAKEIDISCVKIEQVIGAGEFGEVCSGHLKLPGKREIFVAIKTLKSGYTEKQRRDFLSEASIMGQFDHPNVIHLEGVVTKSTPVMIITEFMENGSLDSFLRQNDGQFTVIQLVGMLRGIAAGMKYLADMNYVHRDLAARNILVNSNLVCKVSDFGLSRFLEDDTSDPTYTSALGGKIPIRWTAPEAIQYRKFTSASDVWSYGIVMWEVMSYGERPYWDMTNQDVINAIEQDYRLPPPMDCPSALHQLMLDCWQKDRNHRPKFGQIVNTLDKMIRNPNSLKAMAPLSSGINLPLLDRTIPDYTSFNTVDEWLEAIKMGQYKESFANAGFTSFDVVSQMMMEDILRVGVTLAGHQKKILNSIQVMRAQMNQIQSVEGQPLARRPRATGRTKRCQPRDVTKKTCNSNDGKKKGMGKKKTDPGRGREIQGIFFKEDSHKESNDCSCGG", "details": "0.1 µM; binder"}, "[9]": {"target": "BRSK2 (Homo sapiens, UniProt Q8IWQ3)", "details": "0.1 µM; binder"}, "[10]": {"target": "PHKG1 (Homo sapiens, UniProt Q16816)", "details": "0.1 µM; binder"}, "[11]": {"target": "MST4 (Homo sapiens, UniProt Q9P289)", "details": "0.1 µM; binder"}, "[12]": {"target": "MAP4K4 (Homo sapiens, UniProt O95819)", "details": "0.1 µM; binder"}, "[13]": {"target": "FES (Homo sapiens, UniProt P07332)", "details": "0.1 µM; binder"}, "[14]": {"target": "RPS6KA4(Kin.Dom.2-C-terminal) (Homo sapiens, UniProt O75676)", "details": "0.1 µM; binder"}, "[15]": {"target": "GCN2(Kin.Dom.2,S808G) (Homo sapiens, UniProt Q9P2K8, S808G)", "details": "0.1 µM; binder"}, "[16]": {"target": "RPS6KA4(Kin.Dom.1-N-terminal) (Homo sapiens, UniProt O75676)", "details": "0.1 µM; binder"}, "[17]": {"target": "RSK2(Kin.Dom.2-C-terminal) (Homo sapiens, UniProt P51812)", "details": "0.1 µM; binder"}, "[18]": {"target": "PFPK5(P. falciparum) (Plasmodium falciparum, UniProt P61075)", "sequence (P61075 whole entry)": "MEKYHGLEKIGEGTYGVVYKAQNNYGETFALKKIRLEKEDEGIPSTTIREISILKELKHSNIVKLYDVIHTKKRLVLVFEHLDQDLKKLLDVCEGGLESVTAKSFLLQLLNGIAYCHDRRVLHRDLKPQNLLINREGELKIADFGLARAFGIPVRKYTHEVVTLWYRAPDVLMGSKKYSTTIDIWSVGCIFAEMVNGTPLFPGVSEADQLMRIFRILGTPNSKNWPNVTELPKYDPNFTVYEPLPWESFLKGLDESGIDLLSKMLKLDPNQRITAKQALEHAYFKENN", "details": "1 µM; binder"}, "[19]": {"target": "JAK2(JH1domain-catalytic) (Homo sapiens, UniProt O60674)", "details": "0.1 µM; binder"}, "[20]": {"target": "RSK4(Kin.Dom.1-N-terminal) (Homo sapiens, UniProt Q9UK32)", "details": "0.1 µM; binder"}, "[21]": {"target": "JAK1(JH1domain-catalytic) (Homo sapiens, UniProt P23458)", "sequence (P23458 whole entry)": "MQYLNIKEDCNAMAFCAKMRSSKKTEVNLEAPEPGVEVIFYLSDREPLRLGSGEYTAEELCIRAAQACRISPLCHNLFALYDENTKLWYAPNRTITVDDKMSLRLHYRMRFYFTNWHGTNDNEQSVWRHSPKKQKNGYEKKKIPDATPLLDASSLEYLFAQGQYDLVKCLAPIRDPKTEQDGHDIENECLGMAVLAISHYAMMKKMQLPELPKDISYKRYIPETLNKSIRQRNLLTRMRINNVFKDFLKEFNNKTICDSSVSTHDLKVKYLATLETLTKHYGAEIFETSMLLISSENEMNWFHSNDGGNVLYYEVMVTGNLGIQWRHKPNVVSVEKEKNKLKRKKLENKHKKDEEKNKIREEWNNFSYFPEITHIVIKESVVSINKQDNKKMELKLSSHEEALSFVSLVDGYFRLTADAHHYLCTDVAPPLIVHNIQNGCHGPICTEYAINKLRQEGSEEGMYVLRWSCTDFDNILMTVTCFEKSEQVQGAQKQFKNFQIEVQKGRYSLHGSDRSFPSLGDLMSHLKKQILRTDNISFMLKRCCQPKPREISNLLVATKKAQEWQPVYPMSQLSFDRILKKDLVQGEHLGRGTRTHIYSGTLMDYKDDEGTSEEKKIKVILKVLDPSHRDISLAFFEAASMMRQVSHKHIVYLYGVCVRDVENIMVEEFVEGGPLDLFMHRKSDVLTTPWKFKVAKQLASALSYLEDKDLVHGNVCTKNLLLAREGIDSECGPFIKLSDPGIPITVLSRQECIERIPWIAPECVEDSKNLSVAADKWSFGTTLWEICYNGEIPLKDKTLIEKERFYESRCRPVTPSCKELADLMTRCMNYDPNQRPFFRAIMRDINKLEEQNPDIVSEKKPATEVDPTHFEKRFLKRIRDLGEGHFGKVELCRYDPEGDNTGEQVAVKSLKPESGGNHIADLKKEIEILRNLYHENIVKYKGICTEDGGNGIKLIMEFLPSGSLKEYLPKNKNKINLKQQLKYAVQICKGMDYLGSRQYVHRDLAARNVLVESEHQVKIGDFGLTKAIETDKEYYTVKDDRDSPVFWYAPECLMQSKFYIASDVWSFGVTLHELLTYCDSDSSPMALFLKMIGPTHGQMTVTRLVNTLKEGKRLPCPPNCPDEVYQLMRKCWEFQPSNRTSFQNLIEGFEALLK", "details": "0.1 µM; binder"}, "[22]": {"target": "RSK3(Kin.Dom.2-C-terminal) (Homo sapiens, UniProt Q15349)", "details": "0.1 µM; binder"}, "[23]": {"target": "RPS6KA5(Kin.Dom.2-C-terminal) (Homo sapiens, UniProt O75582)", "details": "0.1 µM; binder"}, "[24]": {"target": "JAK3(JH1domain-catalytic) (Homo sapiens, UniProt P52333)", "details": "0.1 µM; binder"}, "[25]": {"target": "CDK4-cyclinD1 (Homo sapiens, UniProt P11802)", "details": "0.1 µM; binder"}, "[26]": {"target": "RSK1(Kin.Dom.2-C-terminal) (Homo sapiens, UniProt Q15418)", "sequence (Q15418 whole entry)": "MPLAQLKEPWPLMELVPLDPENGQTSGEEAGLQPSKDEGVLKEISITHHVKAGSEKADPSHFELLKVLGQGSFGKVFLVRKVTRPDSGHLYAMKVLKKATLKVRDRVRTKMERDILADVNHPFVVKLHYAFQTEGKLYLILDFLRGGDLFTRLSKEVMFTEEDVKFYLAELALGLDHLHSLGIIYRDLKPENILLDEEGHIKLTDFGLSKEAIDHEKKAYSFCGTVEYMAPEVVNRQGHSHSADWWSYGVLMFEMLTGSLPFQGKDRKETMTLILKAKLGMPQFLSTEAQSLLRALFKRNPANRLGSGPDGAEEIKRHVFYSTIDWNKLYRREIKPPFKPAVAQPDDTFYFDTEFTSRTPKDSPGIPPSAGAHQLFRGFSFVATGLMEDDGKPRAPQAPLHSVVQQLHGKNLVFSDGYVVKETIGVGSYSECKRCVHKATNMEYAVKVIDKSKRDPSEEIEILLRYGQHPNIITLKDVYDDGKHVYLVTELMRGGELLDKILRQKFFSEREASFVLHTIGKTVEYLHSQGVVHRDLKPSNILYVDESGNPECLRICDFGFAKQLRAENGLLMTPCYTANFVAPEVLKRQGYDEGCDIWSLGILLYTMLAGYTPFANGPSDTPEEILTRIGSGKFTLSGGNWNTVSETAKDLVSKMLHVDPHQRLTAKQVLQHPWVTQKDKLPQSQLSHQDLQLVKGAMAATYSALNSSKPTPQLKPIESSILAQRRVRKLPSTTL", "details": "0.1 µM; binder"}, "[27]": {"target": "PKNB (M. tuberculosis) (Mycobacterium tuberculosis, UniProt P9WI81)", "details": "1 µM; binder"}, "[28]": {"target": "T1, PFCDPK1 (P. falciparum)", "details": "1 µM; binder"}},
  "note": "Read-outs that look alike come from different tables or passages of the source.",
  "data": [
    {"smiles": "CNc1ncc2cc(-c3ccc(-c4cccc(C)n4)cc3Cl)c(=O)n(C[C@H]3OC[C@H](N)CO3)c2n1", "note": "[compound 6, G-5555]", "values": [
      {"measurement": "Percent Control", "setting": "[1]", "value": 100, "unit": "%"},
      {"measurement": "Percent Control", "setting": "[2]", "value": 100, "unit": "%"},
      {"measurement": "Percent Control", "setting": "[3]", "value": 9.1, "unit": "%"},
      {"measurement": "Percent Control", "setting": "[4]", "value": 84, "unit": "%"},
      {"measurement": "Percent Control", "setting": "[5]", "value": 100, "unit": "%"},
      {"measurement": "Percent Control", "setting": "[6]", "value": 92, "unit": "%"},
      {"measurement": "Percent Control", "setting": "[7]", "value": 100, "unit": "%"},
      {"measurement": "Percent Control", "setting": "[8]", "value": 100, "unit": "%"},
      {"measurement": "Percent Control", "setting": "[9]", "value": 100, "unit": "%"},
      {"measurement": "Percent Control", "setting": "[10]", "value": 100, "unit": "%"},
      {"measurement": "Percent Control", "setting": "[11]", "value": 0.5, "unit": "%"},
      {"measurement": "Percent Control", "setting": "[12]", "value": 100, "unit": "%"},
      {"measurement": "Percent Control", "setting": "[13]", "value": 100, "unit": "%"},
      {"measurement": "Percent Control", "setting": "[14]", "value": 100, "unit": "%"},
      {"measurement": "Percent Control", "setting": "[15]", "value": 76, "unit": "%"},
      {"measurement": "Percent Control", "setting": "[16]", "value": 100, "unit": "%"},
      {"measurement": "Percent Control", "setting": "[17]", "value": 83, "unit": "%"},
      {"measurement": "Percent Control", "setting": "[18]", "value": 100, "unit": "%"},
      {"measurement": "Percent Control", "setting": "[19]", "value": 99, "unit": "%"},
      {"measurement": "Percent Control", "setting": "[20]", "value": 97, "unit": "%"},
      {"measurement": "Percent Control", "setting": "[21]", "value": 100, "unit": "%"},
      {"measurement": "Percent Control", "setting": "[22]", "value": 100, "unit": "%"},
      {"measurement": "Percent Control", "setting": "[23]", "value": 100, "unit": "%"},
      {"measurement": "Percent Control", "setting": "[24]", "value": 100, "unit": "%"},
      {"measurement": "Percent Control", "setting": "[25]", "value": 100, "unit": "%"},
      {"measurement": "Percent Control", "setting": "[26]", "value": 100, "unit": "%"},
      {"measurement": "Percent Control", "setting": "[27]", "value": 51, "unit": "%"},
      {"measurement": "Percent Control", "setting": "[28]", "value": 0.4, "unit": "%"}
    ]}
  ]
}
